Measured values reported in patent US20100215579A1, “PHEN-NAPHTHALENE AND PHEN-QUINOLINE DERIVATIVES AND THEIR USE FOR BINDING AND IMAGING AMYLOID PLAQUES” (The Trustees of the University of Pennsylvania, priority 2007, published 2010).

What was measured:
[1] = Biodistribution in ICR mice after an iv injection; type: in vivo
Text: Biodistribution in ICR Mice After an iv Injection of [^18F][4-(6-{2-[2-(2-Fluoro-ethoxy)-ethoxy]-ethoxy}-naphthalen-2-yl)-phenyl]-methyl-amine in 1% EtOH/0.1% BSA in Water
(% dose/organ, avg of 3 mice±SD)
(% dose/g, avg of 3 mice±SD)
Biodistribution in ICR Mice After an iv Injection of [^18F]19a in 3% EtOH/0.1% BSA in Water
Biodistribution in ICR Mice After an iv Injection of [^18F]34a in 5% EtOH/0.1% BSA in Water
Biodistribution in ICR Mice After an iv Injection of [^18F]32a in 1% EtOH/0.1% BSA in Water

[2] = Log P (octanol/Na2HPO4 buffer pH 7.4); type: physicochemical; settings: octanol/0.1 M Na2HPO4 buffer (pH 7.4)
[3] = Blood, 2 min after iv injection
[4] = Blood, 30 min after iv injection
[5] = Bone, 30 min after iv injection
[6] = Brain, 2 min after iv injection
[7] = Brain, 30 min after iv injection
[8] = Heart, 2 min after iv injection
[9] = Heart, 30 min after iv injection
[10] = Kidney, 2 min after iv injection
[11] = Kidney, 30 min after iv injection
[12] = Kidney, 1 hr after iv injection
[13] = Kidney, 2 hr after iv injection
[14] = Liver, 2 min after iv injection
[15] = Liver, 30 min after iv injection
[16] = Lung, 30 min after iv injection
[17] = Muscle, 2 min after iv injection
[18] = Muscle, 30 min after iv injection
[19] = Muscle, 1 hr after iv injection
[20] = Muscle, 2 hr after iv injection
[21] = Skin, 30 min after iv injection
[22] = Spleen, 2 min after iv injection
[23] = Spleen, 30 min after iv injection
[24] = Spleen, 1 hr after iv injection
[25] = Spleen, 2 hr after iv injection

Which “% dose/g” value [1, 3] does the source give for `CN(C)c1ccc(-c2ccc3nc(OCCOCCOCC[18F])ccc3c2)cc1` [[^18F]32a] here?
The value was 1.80 ± 0.28 % dose/g.

And the “% dose/organ” value [1, 3]?
Its value is 3.32 ± 0.46 % dose/organ.

And the “% dose/g” value [1, 4]?
Its value is 0.99 ± 0.12 % dose/g.

And the “% dose/organ” value [1, 4]?
The value was 1.80 ± 0.14 % dose/organ.

What about the “% dose/g” value ([1]; Blood, 1 hr after iv injection) of the same compound?
Its value is 1.37 ± 0.14 % dose/g.

What about the “% dose/organ” value ([1]; Blood, 1 hr after iv injection) of the same compound?
The value was 2.40 ± 0.19 % dose/organ.

And the “% dose/g” value ([1]; Blood, 2 hr after iv injection)?
Its value is 1.13 ± 0.15 % dose/g.

And the “% dose/organ” value ([1]; Blood, 2 hr after iv injection)?
The value was 2.00 ± 0.25 % dose/organ.

And the “% dose/g” value ([1]; Bone, 2 min after iv injection)?
Its value is 1.25 ± 0.06 % dose/g.

What about the “% dose/organ” value ([1]; Bone, 2 min after iv injection) of the same compound?
The value was 4.63 ± 0.32 % dose/organ.

What about the “% dose/g” value [1, 5] of the same compound?
The value was 0.81 ± 0.11 % dose/g.

And the “% dose/organ” value [1, 5]?
The value was 2.92 ± 0.27 % dose/organ.

What about the “% dose/g” value ([1]; Bone, 1 hr after iv injection) of the same compound?
The value was 1.11 ± 0.14 % dose/g.

What about the “% dose/organ” value ([1]; Bone, 1 hr after iv injection) of the same compound?
The value was 3.91 ± 0.37 % dose/organ.

And the “% dose/g” value ([1]; Bone, 2 hr after iv injection)?
The value was 1.47 ± 0.27 % dose/g.

And the “% dose/organ” value ([1]; Bone, 2 hr after iv injection)?
Its value is 5.19 ± 0.80 % dose/organ.

And the “% dose/g” value [1, 6]?
Its value is 7.76 ± 1.25 % dose/g.

What about the “% dose/organ” value [1, 6] of the same compound?
Its value is 3.56 ± 0.47 % dose/organ.

And the “% dose/g” value [1, 7]?
The value was 2.33 ± 0.68 % dose/g.

And the “% dose/organ” value [1, 7]?
Its value is 1.07 ± 0.24 % dose/organ.

And the “% dose/g” value ([1]; Brain, 1 hr after iv injection)?
Its value is 1.92 ± 0.31 % dose/g.

What about the “% dose/organ” value ([1]; Brain, 1 hr after iv injection) of the same compound?
The value was 0.86 ± 0.14 % dose/organ.

And the “% dose/g” value ([1]; Brain, 2 hr after iv injection)?
Its value is 1.45 ± 0.11 % dose/g.

And the “% dose/organ” value ([1]; Brain, 2 hr after iv injection)?
The value was 0.66 ± 0.03 % dose/organ.

What about the “% dose/g” value [1, 8] of the same compound?
Its value is 10.1 ± 1.14 % dose/g.

And the “% dose/organ” value [1, 8]?
The value was 1.36 ± 0.20 % dose/organ.

What about the “% dose/g” value [1, 9] of the same compound?
The value was 1.99 ± 0.43 % dose/g.

And the “% dose/organ” value [1, 9]?
The value was 0.26 ± 0.06 % dose/organ.

What about the “% dose/g” value ([1]; Heart, 1 hr after iv injection) of the same compound?
Its value is 2.07 ± 0.23 % dose/g.

What about the “% dose/organ” value ([1]; Heart, 1 hr after iv injection) of the same compound?
The value was 0.25 ± 0.03 % dose/organ.

And the “% dose/g” value ([1]; Heart, 2 hr after iv injection)?
Its value is 1.28 ± 0.09 % dose/g.

What about the “% dose/organ” value ([1]; Heart, 2 hr after iv injection) of the same compound?
Its value is 0.15 ± 0.01 % dose/organ.

And the “% dose/g” value [1, 10]?
Its value is 13.0 ± 3.04 % dose/g.

And the “% dose/organ” value [1, 10]?
Its value is 5.25 ± 0.89 % dose/organ.

What about the “% dose/g” value [1, 11] of the same compound?
Its value is 3.61 ± 0.65 % dose/g.

And the “% dose/organ” value [1, 11]?
The value was 1.55 ± 0.33 % dose/organ.

What about the “% dose/g” value [1, 12] of the same compound?
The value was 3.38 ± 0.38 % dose/g.

And the “% dose/organ” value [1, 12]?
Its value is 1.24 ± 0.19 % dose/organ.

And the “% dose/g” value [1, 13]?
Its value is 1.78 ± 0.06 % dose/g.

What about the “% dose/organ” value [1, 13] of the same compound?
Its value is 0.73 ± 0.02 % dose/organ.

What about the “% dose/g” value [1, 14] of the same compound?
Its value is 16.3 ± 4.96 % dose/g.

What about the “% dose/organ” value [1, 14] of the same compound?
The value was 19.4 ± 3.67 % dose/organ.

What about the “% dose/g” value [1, 15] of the same compound?
Its value is 8.02 ± 0.65 % dose/g.

What about the “% dose/organ” value [1, 15] of the same compound?
Its value is 11.2 ± 1.65 % dose/organ.

And the “% dose/g” value ([1]; Liver, 1 hr after iv injection)?
Its value is 8.10 ± 1.59 % dose/g.

What about the “% dose/organ” value ([1]; Liver, 1 hr after iv injection) of the same compound?
Its value is 9.75 ± 1.79 % dose/organ.

What about the “% dose/g” value ([1]; Liver, 2 hr after iv injection) of the same compound?
Its value is 5.22 ± 0.49 % dose/g.

What about the “% dose/organ” value ([1]; Liver, 2 hr after iv injection) of the same compound?
Its value is 6.34 ± 0.87 % dose/organ.

What about the “% dose/g” value ([1]; Lung, 2 min after iv injection) of the same compound?
Its value is 7.63 ± 0.46 % dose/g.

What about the “% dose/organ” value ([1]; Lung, 2 min after iv injection) of the same compound?
Its value is 1.54 ± 0.16 % dose/organ.

What about the “% dose/g” value [1, 16] of the same compound?
The value was 2.31 ± 0.42 % dose/g.

And the “% dose/organ” value [1, 16]?
Its value is 0.42 ± 0.07 % dose/organ.

And the “% dose/g” value ([1]; Lung, 1 hr after iv injection)?
Its value is 2.21 ± 0.19 % dose/g.

And the “% dose/organ” value ([1]; Lung, 1 hr after iv injection)?
The value was 0.40 ± 0.01 % dose/organ.

And the “% dose/g” value ([1]; Lung, 2 hr after iv injection)?
The value was 1.43 ± 0.03 % dose/g.

And the “% dose/organ” value ([1]; Lung, 2 hr after iv injection)?
The value was 0.27 ± 0.00 % dose/organ.

And the “% dose/g” value [1, 17]?
Its value is 0.83 ± 0.19 % dose/g.

And the “% dose/organ” value [1, 17]?
Its value is 8.87 ± 2.47 % dose/organ.

And the “% dose/g” value [1, 18]?
Its value is 1.20 ± 0.28 % dose/g.

And the “% dose/organ” value [1, 18]?
Its value is 12.3 ± 2.18 % dose/organ.

What about the “% dose/g” value [1, 19] of the same compound?
The value was 1.09 ± 0.09 % dose/g.

What about the “% dose/organ” value [1, 19] of the same compound?
The value was 11.0 ± 0.64 % dose/organ.

And the “% dose/g” value [1, 20]?
Its value is 0.81 ± 0.14 % dose/g.

And the “% dose/organ” value [1, 20]?
Its value is 8.16 ± 1.14 % dose/organ.

What about the “% dose/g” value ([1]; Skin, 2 min after iv injection) of the same compound?
Its value is 0.42 ± 0.06 % dose/g.

What about the “% dose/organ” value ([1]; Skin, 2 min after iv injection) of the same compound?
The value was 1.68 ± 0.22 % dose/organ.

What about the “% dose/g” value [1, 21] of the same compound?
Its value is 0.98 ± 0.33 % dose/g.

What about the “% dose/organ” value [1, 21] of the same compound?
Its value is 3.86 ± 1.41 % dose/organ.

And the “% dose/g” value ([1]; Skin, 1 hr after iv injection)?
Its value is 0.94 ± 0.06 % dose/g.

And the “% dose/organ” value ([1]; Skin, 1 hr after iv injection)?
The value was 3.53 ± 0.16 % dose/organ.

And the “% dose/g” value ([1]; Skin, 2 hr after iv injection)?
The value was 0.82 ± 0.15 % dose/g.

What about the “% dose/organ” value ([1]; Skin, 2 hr after iv injection) of the same compound?
Its value is 3.11 ± 0.48 % dose/organ.

And the “% dose/g” value [1, 22]?
The value was 4.95 ± 0.78 % dose/g.

And the “% dose/organ” value [1, 22]?
The value was 0.51 ± 0.09 % dose/organ.

And the “% dose/g” value [1, 23]?
The value was 1.56 ± 0.28 % dose/g.

And the “% dose/organ” value [1, 23]?
The value was 0.15 ± 0.03 % dose/organ.

And the “% dose/g” value [1, 24]?
Its value is 1.64 ± 0.13 % dose/g.

And the “% dose/organ” value [1, 24]?
The value was 0.15 ± 0.04 % dose/organ.

And the “% dose/g” value [1, 25]?
The value was 1.16 ± 0.07 % dose/g.

What about the “% dose/organ” value [1, 25] of the same compound?
The value was 0.09 ± 0.01 % dose/organ.

And the “Log P” value [2]?
The value was 2.77.
